# Measurements published in article PMC5945843, “Direct neurotransmitter activation of voltage-gated potassium channels” (Nature Communications, 2018).
# “And” between values parts separate entries of the source, which are not always exact repeats. Equal entries are not always repeated. Where two headings read alike, the source gives them in different places.
# Legend:
# KCNA1 (Kv1.1) = KCNA1 (Kv1.1) (Homo sapiens, UniProt Q09470); assay: TEVC in Xenopus oocytes; format: cell-based; settings: for Slope: Ctrl 6.2 ± 0.4; for Normalized tail current V0.5: Ctrl -29.8 ± 0.69
# KCNA1 (Kv1.1), sequence (Q09470 whole entry): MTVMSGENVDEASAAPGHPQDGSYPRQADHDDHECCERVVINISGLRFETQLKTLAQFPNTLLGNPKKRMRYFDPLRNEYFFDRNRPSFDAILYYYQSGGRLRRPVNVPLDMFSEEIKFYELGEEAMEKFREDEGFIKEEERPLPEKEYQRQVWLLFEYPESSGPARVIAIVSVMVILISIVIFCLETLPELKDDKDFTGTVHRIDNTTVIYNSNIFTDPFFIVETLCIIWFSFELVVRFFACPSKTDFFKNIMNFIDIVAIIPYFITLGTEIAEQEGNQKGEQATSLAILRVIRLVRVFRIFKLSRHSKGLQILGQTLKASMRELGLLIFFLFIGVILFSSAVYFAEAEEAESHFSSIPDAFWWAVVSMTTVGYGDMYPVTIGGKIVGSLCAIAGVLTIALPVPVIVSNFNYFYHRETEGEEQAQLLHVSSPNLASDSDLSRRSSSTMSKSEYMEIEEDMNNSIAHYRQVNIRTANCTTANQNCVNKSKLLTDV
# From the text: Chemicals were sourced from Sigma.
# [1] = test system: native M-current in mouse DRG neurons; assay: Perforated patch-clamp of dorsal root ganglion neurons; format: cell-based; settings: 100 µM GABA
# Method: Adult male mice were purchased from Jackson Labs and then housed and used according to a protocol approved by the Institutional Animal Care and Use Committee of University of California, Irvine, and consistent with recommendations in the NIH Guide for the Care and Use of Laboratory Animals (8th edition, 2011). […]. DRG neurons were then cultured on poly-L-lysine and laminin-coated plastic coverslips in RPMI 1640 with 10% horse serum and 1% penicillin/streptomycin at 37 °C for 1–4 days before electrophysiological recordings were performed using perforated patch clamp. Amphotericin B (VWR, Radnor, PA) was dissolved in DMSO at 5 mg/ml (stock solution), then diluted to 150–200 µg/ml in intracellular solution and sonicated with a probe sonicator on ice for 5 s, kept at room temperature in the dark, and replaced every hour with a fresh solution from the stock. The working amphotericin solution was backfilled into borosilicate glass electrodes (3–5 MΩ) previously tip-filled to ~0.5 mm with intracellular solution lacking amphotericin B, immediately prior to sealing onto individual neurons. After whole-cell configuration was achieved and capacitance stabilized, whole-cell recordings were performed essentially as described in the prior paragraph, with the following differences: neurons were held at −20 mV to inactivate other channels before the test pulses; offline leak subtraction was performed.
# [2] = molecular target: KCNQ3* (expression-optimized KCNQ3-A315T mutant) (Homo sapiens, UniProt O43525, A315T); settings: for Slope: Ctrl 4.5 ± 0.9; for Normalized tail current V0.5: Ctrl -51.4 ± 1.9; for Non-normalized tail current V0.5: Ctrl -47.5 ± 4.4
# From the text: (§4) cRNA transcripts encoding human KCNQ1, KCNQ2, KCNQ3, KCNQ4, KCNQ5, KCNA1, or KCNE1 were generated by in vitro transcription using the T7 polymerase mMessage mMachine kit (Thermo Fisher Scientific), after vector linearization, from complementary DNA (cDNA) sub-cloned into plasmids incorporating Xenopus laevis β-globin 5′ and 3′ untranslated regions flanking the coding region to enhance translation and cRNA stability. cRNA was quantified by spectrophotometry. […] Defolliculated stage V and VI Xenopus laevis oocytes (Ecocyte Bioscience, Austin, TX) were injected with Kv channel α subunit cRNAs (5–10 ng).
# (§5) Oocytes were placed in a small-volume oocyte bath (Warner) and viewed with a dissection microscope. Chemicals were sourced from Sigma. Bath solution was (in mM): 96 NaCl, 4 KCl, 1 MgCl2, 1 CaCl2, 10 HEPES (pH 7.6). […] Valeric acid was stored as a 5 mM stock in Ringer’s solution at 4 °C and diluted to working concentrations each experimental day. β-hydroxybutyric acid was stored at 4 °C as a 480 mM stock in 100% ethanol and diluted to working concentrations each experimental day. All compounds were introduced to the recording bath via gravity perfusion at a constant flow of 1 ml per min for 3 min prior to recording. Pipettes were of 1–2 MΩ resistance when filled with 3 M KCl. Currents were recorded in response to pulses between −80 mV and +40 mV at 20 mV intervals, or a single pulse to +40 mV, from a holding potential of −80 mV, to yield current-voltage relationships, current magnitude, and for quantifying activation rate. Deactivation was recorded at −80 mV after a single activating pulse to +40 mV, from a holding potential of −80 mV. […] TEVC data analysis was performed with Clampfit (Molecular Devices) and Graphpad Prism software (GraphPad, San Diego, CA, USA); values are stated as mean ± SEM. Normalized tail currents were plotted versus prepulse voltage and fitted with a single Boltzmann function:1 g=(A1-A2)/1+expV1/2-V∕VS+A2, where g is the normalized tail conductance, A1 is the initial value at −∞, A2 is the final value at +∞, V1/2 is the half-maximal voltage of activation, and VS the slope factor. Activation and deactivation kinetics were fitted with single exponential functions.
# [3] = test system: water-injected Xenopus laevis oocytes; assay: TEVC of water-injected oocytes (endogenous currents, EM); format: cell-based
# From the text: Chemicals were sourced from Sigma. […] […].
# KCNQ5 = KCNQ5 (Homo sapiens, UniProt Q9NR82); assay: TEVC in Xenopus oocytes; format: cell-based; settings: for Slope: Ctrl 9.6 ± 1.9; for Normalized tail current V0.5: Ctrl -41.7 ± 1.5; for Non-normalized tail current V0.5: Ctrl -[…]
# From the text: as §4, §5
# [4] = molecular target: T1, KCNQ2/3 channels expressed in CHO cells (Mus musculus, UniProt Q8K3F6+Q9Z351); assay: Whole-cell patch clamp of transfected CHO cells; format: cell-based; settings: 100 µM GABA
# T1 construct: expressed in transfected cells; host or cells: CHO cells (ATCC), transient transfection with TransIT-LT1
# Method: (§1) CHO cells (ATCC) were seeded on poly-L-lysine-treated glass coverslips in 24-well plates and transfected the next day using 0.5 µg each of mouse KCNQ2 and KCNQ3 cDNA in a CMV vector per well in normal media (DMEM with 10% FBS and 1% penicillin/streptomycin). The transfection reagent used was TransIT-LT1 (Mirus Bio LLC, Madison, WI, USA) and cells were patched 48–72 h post transfection. […] Media was replenished every 3 days and cultures were split once a week. […] Cell culture plastic ware and reagents were purchased from VWR and Fisher Scientific unless otherwise stated.
# (§2) For both CHO cells and PC12 cells, currents were recorded in whole-cell mode at room temperature (22–25 °C) with 3–6 MΩ borosilicate glass electrodes backfilled with solution containing (in mM): 90 K acetate, 20 KCl, 40 HEPES, 3 MgCl2, 1 CaCl2, 3 EGTA-KOH, 2 MgATP; pH 7.2.
# (§3) The pClamp8 (Molecular Devices) software package was used for data acquisition and Clampfit was used for analysis, along with Graphpad Prism 7.0 (Graphpad).
# [5] = molecular target: homomeric wild-type human KCNQ3 (Homo sapiens, UniProt O43525); assay: 3H-GABA radioligand binding (single concentration, cold competition, saturation) in Xenopus oocytes; settings: cold (unlabeled) GABA 1 mM
# homomeric wild-type human KCNQ3, sequence (O43525 whole entry): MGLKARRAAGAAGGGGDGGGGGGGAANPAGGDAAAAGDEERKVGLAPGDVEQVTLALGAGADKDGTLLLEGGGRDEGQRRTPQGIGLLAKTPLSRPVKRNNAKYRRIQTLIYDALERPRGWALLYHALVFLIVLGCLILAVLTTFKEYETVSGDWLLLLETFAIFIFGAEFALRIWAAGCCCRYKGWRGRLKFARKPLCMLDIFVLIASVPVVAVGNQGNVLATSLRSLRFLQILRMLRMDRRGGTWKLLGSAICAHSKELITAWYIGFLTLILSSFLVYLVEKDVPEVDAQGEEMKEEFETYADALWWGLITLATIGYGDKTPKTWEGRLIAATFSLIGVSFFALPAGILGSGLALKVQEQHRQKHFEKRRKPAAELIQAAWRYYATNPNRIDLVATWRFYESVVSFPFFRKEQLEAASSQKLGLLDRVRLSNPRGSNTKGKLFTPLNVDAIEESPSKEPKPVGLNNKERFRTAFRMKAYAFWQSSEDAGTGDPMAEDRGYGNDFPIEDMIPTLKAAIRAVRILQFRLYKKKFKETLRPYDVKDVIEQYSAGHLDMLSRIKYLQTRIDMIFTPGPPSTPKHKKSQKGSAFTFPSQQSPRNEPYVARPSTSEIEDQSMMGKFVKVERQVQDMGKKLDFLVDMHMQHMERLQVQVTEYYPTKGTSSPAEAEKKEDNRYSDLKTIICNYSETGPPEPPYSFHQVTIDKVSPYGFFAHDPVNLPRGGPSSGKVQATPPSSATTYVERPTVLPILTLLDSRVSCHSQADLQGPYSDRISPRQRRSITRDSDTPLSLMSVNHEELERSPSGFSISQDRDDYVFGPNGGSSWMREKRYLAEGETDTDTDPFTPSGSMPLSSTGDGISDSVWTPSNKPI
# Method: Defolliculated stage V and VI Xenopus laevis oocytes (Ecocyte Bioscience, Austin, TX) were injected with Kv channel α subunit cRNAs (5–10 ng).
# Oocytes were then washed four times in 16 °C ND96, then transferred to individual wells in a 96-well plate and lysed in 0.2% SDS in ND96. Each oocyte lysate was transferred to a scintillation vial containing 5 ml cytoscint scintillation cocktail fluid (MP Biomedicals, Santa Ana, CA). Vials were capped, shaken, and then allowed to sit at room temperature for at least 30 min before scintillation counting in a Beckmann Coulter LS6500 liquid scintillation counter. […] Oocytes were next incubated in 1 ml per group homogenization buffer (in mM, 150 NaCl, 2 CaCl2, 20 Tris, 2% Nonidet P-40) with 2% protease inhibitor cocktail (Pierce) and then lysed with a 20 ml pipette tip, vortexed, centrifuged at 4000 r.p.m. (10 min, 4 °C). The supernatant was mixed in Eppendorf tubes end-over-end overnight at 4 °C with high-capacity streptavidin agarose beads (Thermo Fisher, Huntington Beach, CA) (20 µl per group).
# For the binding competition assay, the control group was treated as before. […] Each oocyte lysate was transferred to a scintillation vial containing 5 ml cytoscint scintillation cocktail fluid (MP Biomedicals). […] Bmax and Kd values were calculated using automated nonlinear regression analysis in GraphPad prism.
# KCNQ1-KCNE1 = KCNQ1-KCNE1 (Homo sapiens, UniProt P51787); assay: TEVC and resting membrane potential in Xenopus oocytes; format: cell-based
# From the text: as §4, §5
# [6] = test system: native M-current in PC12 cells; assay: Whole-cell patch clamp of NGF-differentiated PC12 cells; format: cell-based, rat; settings: 100 µM GABA + 100 µM picrotoxin + 10 µM CGP55845
# Method: as §1, §2, §3
# KCNQ1 = KCNQ1 (Homo sapiens, UniProt P51787); assay: Two-electrode voltage clamp (TEVC) in Xenopus oocytes
# From the text: as §4
# Oocytes were placed in a small-volume oocyte bath (Warner) and viewed with a dissection microscope. Chemicals were sourced from Sigma. Bath solution was (in mM): 96 NaCl, 4 KCl, 1 MgCl2, 1 CaCl2, 10 HEPES (pH 7.6). […] Valeric acid was stored as a 5 mM stock in Ringer’s solution at 4 °C and diluted to working concentrations each experimental day. β-hydroxybutyric acid was stored at 4 °C as a 480 mM stock in 100% ethanol and diluted to working concentrations each experimental day. All compounds were introduced to the recording bath via gravity perfusion at a constant flow of 1 ml per min for 3 min prior to recording. Pipettes were of 1–2 MΩ resistance when filled with 3 M KCl. Currents were recorded in response to pulses between −80 mV and +40 mV at 20 mV intervals, or a single pulse to +40 mV, from a holding potential of −80 mV, to yield current-voltage relationships, current magnitude, and for quantifying activation rate. Deactivation was recorded at −80 mV after a single activating pulse to +40 mV, from a holding potential of −80 mV. For wortmannin studies, oocytes were incubated in 30 µM wortmannin for 3 h at 16 °C prior to recording. TEVC data analysis was performed with Clampfit (Molecular Devices) and Graphpad Prism software (GraphPad, San Diego, CA, USA); values are stated as mean ± SEM. […]
# KCNQ4 = KCNQ4 (Homo sapiens, UniProt P56696); assay: TEVC in Xenopus oocytes; format: cell-based; settings: for Non-normalized tail current V0.5: Ctrl 8.6 ± 4.3; for Normalized tail current V0.5: Ctrl -8.7 ± 0.8
# From the text: as §4, §5
# [7] = especially at subthreshold potentials
structure (smiles),measurement,setting,value
"NCCCC(=O)O [GABA, γ-aminobutyric acid]",Slope,KCNA1 (Kv1.1); 0.1 µM GABA,6.4 ± 0.5 mV
same,Normalized tail current V0.5,KCNA1 (Kv1.1); 0.1 µM GABA,-29.3 ± 0.88 mV
same,Slope,KCNA1 (Kv1.1); 1 µM GABA,6.1 ± 0.5 mV
same,Normalized tail current V0.5,KCNA1 (Kv1.1); 1 µM GABA,-28.4 ± 0.89 mV
same,Slope,KCNA1 (Kv1.1); 10 µM GABA,6.1 ± 0.5 mV
same,Normalized tail current V0.5,KCNA1 (Kv1.1); 10 µM GABA,-27.6 ± 0.82 mV
same,Slope,KCNA1 (Kv1.1); 100 µM GABA,6.2 ± 0.4 mV
same,Normalized tail current V0.5,KCNA1 (Kv1.1); 100 µM GABA,-27.2 ± 0.67 mV
same,Slope,KCNA1 (Kv1.1); 1 mM GABA,6.4 ± 0.6 mV
same,Normalized tail current V0.5,KCNA1 (Kv1.1); 1 mM GABA,-27.3 ± 0.93 mV
same,effect on peak current or normalized tail current,KCNA1 (Kv1.1); GABA 1 mM,no effect
same,decrease of deactivating current at −60 mV,[1],~ 25%
same,mean GABA-dependent change in current,[1]; at −20 mV,no mean change
same,mean GABA-dependent current increase,"[1]; at −60 mV, picrotoxin + CGP55845 present",threefold
same,"efficacy of channel activation, KCNQ3* compared to KCNQ5",[2],more than threefold greater
same,Slope,[2]; 0.1 µM GABA,4.6 ± 0.9 mV
same,Normalized tail current V0.5,[2]; 0.1 µM GABA,-54.2 ± 1.5 mV
same,Slope,[2]; 1 µM GABA,4.3 ± 0.8 mV
same,Slope,[2]; 10 µM GABA,4.3 ± 3.5 mV
same,Non-normalized tail current V0.5,[2]; 10 µM GABA,-58.4 ± 2.7 mV
same,Normalized tail current V0.5,[2]; 10 µM GABA,-58.9 ± 1.0 mV
same,Slope,[2]; 100 µM GABA,4.8 ± 3.0 mV
same,Non-normalized tail current V0.5,[2]; 100 µM GABA,-59.4 ± 2.8 mV
same,Normalized tail current V0.5,[2]; 100 µM GABA,-59.8 ± 0.9 mV
same,Slope,[2]; 1 mM GABA,4.7 ± 3.3 mV
same,Non-normalized tail current V0.5,[2]; 1 mM GABA,-59.3 ± 2.5 mV
same,Normalized tail current V0.5,[2]; 1 mM GABA,-59.6 ± 0.9 mV
same,effect on channel,[2]; [7],activates
same,effect on endogenous currents or resting membrane potential,[3]; GABA 100 µM,no effect
same,effect on water-injected oocytes,[3]; GABA 1 mM,neither did increasing GABA to 1 mM produce any noticeable effects
same,Slope,KCNQ5; 0.001 µM GABA,9.4 ± 4.3 mV
same,Normalized tail current V0.5,KCNQ5; 0.001 µM GABA,-41.9 ± 2.9 mV
same,Non-normalized tail current V0.5,KCNQ5; 0.001 µM GABA,-41.8 ± 2.8 mV
same,Slope,KCNQ5; 0.01 µM GABA,7.6 ± 2.4 mV
same,Normalized tail current V0.5,KCNQ5; 0.01 µM GABA,-50.1 ± 2.9 mV
same,Non-normalized tail current V0.5,KCNQ5; 0.01 µM GABA,-49.5 ± 2.5 mV
same,Slope,KCNQ5; 0.1 µM GABA,7.4 ± 1.2 mV
same,Normalized tail current V0.5,KCNQ5; 0.1 µM GABA,-53.9 ± 1.7 mV
same,Non-normalized tail current V0.5,KCNQ5; 0.1 µM GABA,-51.3 ± 2.1 mV
same,Slope,KCNQ5; 1 µM GABA,7.6 ± 1.2 mV
same,Normalized tail current V0.5,KCNQ5; 1 µM GABA,-54.2 ± 1.6 mV
same,Non-normalized tail current V0.5,KCNQ5; 1 µM GABA,-51.2 ± 2.6 mV
same,Slope,KCNQ5; 10 µM GABA,8.4 ± 1.4 mV
same,Normalized tail current V0.5,KCNQ5; 10 µM GABA,-57.0 ± 1.8 mV
same,Non-normalized tail current V0.5,KCNQ5; 10 µM GABA,-54.5 ± 2.3 mV
same,Slope,KCNQ5; 100 µM GABA,8.5 ± 1.5 mV
same,Normalized tail current V0.5,KCNQ5; 100 µM GABA,-57.4 ± 1.8 mV
same,Non-normalized tail current V0.5,KCNQ5; 100 µM GABA,-54.5 ± 2.7 mV
same,Slope,KCNQ5; 1 mM GABA,8.8 ± 1.5 mV
same,Normalized tail current V0.5,KCNQ5; 1 mM GABA,-58.3 ± 1.8 mV
same,Non-normalized tail current V0.5,KCNQ5; 1 mM GABA,-56.4 ± 2.4 mV
same,higher GABA sensitivity of KCNQ5 than KCNQ3*,KCNQ5; EC50 ratio at −60 mV,17 fold
same,EC50,KCNQ5; at −60 mV,60 ± 10 nM
same,effect on channel,KCNQ5; [7],activates
same,Slope,[4]; Ctrl 14.3 ± 1.6,16.2 ± 3.0 mV
same,Normalized tail current V0.5,[4]; Ctrl -2.9 ± 2.7,-17.5 ± 3.7 mV and −17.5 mV
same,competition of 3H-GABA binding,[5],outcompeted
same,Normalized tail current V0.5,"KCNQ1-KCNE1; 100 µM GABA, Ctrl 6.1 ± 0.8",3.3 ± 1.2 mV
same,Non-normalized tail current V0.5,"KCNQ1-KCNE1; 100 µM GABA, Ctrl 6.3 ± 2.6",3.1 ± 2.7 mV
same,Slope,"KCNQ1-KCNE1; 100 µM GABA, Ctrl 14 ± 0.7",13.2 ± 0.9 mV
same,effect on KCNQ1-KCNE1 activity,KCNQ1-KCNE1; GABA 100 µM,no effect
same,effect on resting membrane potential (EM),"KCNQ1-KCNE1; GABA 100 µM, unclamped oocytes",does not alter
same,Slope,[6]; blockers alone 17.4 ± 3.0,16.0 ± 3.2 mV
same,Normalized tail current V0.5,[6]; blockers alone -7.1 ± 7.6,-20.6 ± 4.9 mV
same,GABA sensitivity of channel activity,KCNQ1,relatively GABA-insensitive
same,Non-normalized tail current V0.5,"KCNQ1; 100 µM GABA, Ctrl -30.1 ± 2.2",-32.6 ± 1.9 mV
same,Normalized tail current V0.5,"KCNQ1; 100 µM GABA, Ctrl -34.1 ± 0.9",-34.2 ± 0.8 mV
same,GABA sensitivity of channel activity,KCNQ4,relatively GABA-insensitive
same,Non-normalized tail current V0.5,KCNQ4; 0.1 µM GABA,-8.8 ± 4.3 mV
same,Normalized tail current V0.5,KCNQ4; 0.1 µM GABA,-9.6 ± 0.7 mV
same,Non-normalized tail current V0.5,KCNQ4; 1 µM GABA,-9.0 ± 4.3 mV
same,Normalized tail current V0.5,KCNQ4; 1 µM GABA,-9.6 ± 0.8 mV
same,Non-normalized tail current V0.5,KCNQ4; 10 µM GABA,-9.3 ± 3.7 mV
same,Normalized tail current V0.5,KCNQ4; 10 µM GABA,-9.8 ± 0.8 mV
same,Non-normalized tail current V0.5,KCNQ4; 100 µM GABA,-9.0 ± 3.8 mV
same,Normalized tail current V0.5,KCNQ4; 100 µM GABA,-10.3 ± 0.8 mV
same,Non-normalized tail current V0.5,KCNQ4; 1 mM GABA,-8.4 ± 3.4 mV
same,Normalized tail current V0.5,KCNQ4; 1 mM GABA,-8.8 ± 0.8 mV
